The target in assay [1] is RAGE (Homo sapiens, UniProt Q15109). As to the kind of experiment: RAGE binding to peptoid-coated 96-well plates, Scatchard plot. The note with it: plates coated with 500 nM peptoid; JPT1a n=3 average, JPT1 n=1. On the procedure: As shown in FIGS. 7A-7D, 96-well plates coated with 500 nM JPT1a were treated with concentrations of RAGE (FIG. 7A) or E-cadherin (FIG. 7B) ranging from 1 to 500 nM. Values are reported as the average concentration of bound protein determined from all experiments. Error bars indicate SEM, n=2-5. […] In FIG. 7D, 96-well plates coated with 500 nM JPT1 were treated with concentrations of RAGE ranging from 1 to 350 nM.
RAGE (Homo sapiens, UniProt Q15109), sequence (Q15109 23-404): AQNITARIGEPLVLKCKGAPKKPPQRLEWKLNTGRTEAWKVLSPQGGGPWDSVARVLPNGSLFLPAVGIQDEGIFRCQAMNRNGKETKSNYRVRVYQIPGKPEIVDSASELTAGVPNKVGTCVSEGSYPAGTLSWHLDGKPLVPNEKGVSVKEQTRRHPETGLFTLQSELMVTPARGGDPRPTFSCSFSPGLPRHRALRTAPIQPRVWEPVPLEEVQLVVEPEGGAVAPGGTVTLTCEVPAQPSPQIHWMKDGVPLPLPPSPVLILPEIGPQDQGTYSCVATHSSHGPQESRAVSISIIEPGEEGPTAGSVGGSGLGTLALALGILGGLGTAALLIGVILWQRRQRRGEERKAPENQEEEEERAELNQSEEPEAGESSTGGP

For assay [2], the system named is RAGE. The assay can be described thus: RAGE upregulation in THP-1 macrophages co-incubated with peptoid and low-dose LPS (confocal imaging). The class given is cell-based, human. As to conditions: 3 days. The method, then: THP-1 monocytes were differentiated into macrophages through exposure to phorbol 12-myristate 13-acetate (PMA) for three days prior to experimentation 10. […] Upon differentiation, these cells were then incubated (3 days) with media containing JPT1a (50, 10, or 2 μM) alone or JPT1a (50, 10, or 2 μM) in the presence of low-dose (2 ng/mL) lipopolysaccharide (LPS) as a chronic pro-inflammatory stimulus 11. Treatment with 2 ng/mL LPS alone served as a positive control, while treatment with an equivalent volume of buffer diluted into media served as the vehicle. Cellular supernatant was harvested on day 3 12; these samples were immediately centrifuged at 1200 rpm for 10 min at 25° C. to remove any cells or debris. The top 80% of this volume was subsequently removed and stored at −80° C. for later assessment of cytokines via ELISA. Cells were fixed and stained for RAGE, phalloidin (cytoplasmic marker), and DAPI (nuclear marker) 13. Each channel was imaged with a Zeiss LSM 510 META Confocal Scanning Laser Microscope using a plan-neofluar 40×/1.3 oil DIC immersion objective; three of these multi-channel images were obtained from each slide in each experiment 14. All multi-channel images were converted to TIFF file format via ImageJ64 software for quantitative image analysis using a custom subroutine written in Matlab™ software to obtain the average RAGE expression per volume of cells, and the data generated was assessed for statistical significance using GraphPad Prism 7.0 software 15.
Images acquired via confocal microscopy were analyzed via custom MATLAB™ subroutine to determine the average quantity of RAGE present within a given volume of cells. Results within each experiment are normalized to the positive control (2 ng/mL LPS alone), indicated by the dashed line at 1. Significance relative to positive control is indicated as ** p<0.01. Error bars indicate SEM, n=4.
Images acquired via confocal microscopy were analyzed via custom MATLAB™ subroutine to determine the average quantity of RAGE present within a given volume of cells. Results within each experiment are normalized to the positive control (2 ng/mL LPS alone), indicated by the dashed line at 1.0. Error bars indicate SEM, n=2.

Where a SMILES comes first, the peptide text is derived from it. [ ]: non-standard residue; d: D form. N(1S-Me-propyl)Gly = CC[C@H](C)NCC(=O)O; Nspe = C[C@H](NCC(=O)O)c1ccccc1; Nlys = NCCCCNCC(=O)O

In the case of `CC[C@H](C)N(CC(=O)N(CC(=O)N(CC(=O)N(CC(=O)N(CC(=O)N(CC(=O)N(CC(N)=O)[C@@H](C)c1ccccc1)[C@@H](C)c1ccccc1)[C@@H](C)CC)[C@@H](C)c1ccccc1)[C@@H](C)c1ccccc1)[C@@H](C)CC)C(=O)CNCCCCN` [JPT1a] (H-[Nlys][N(1S-Me-propyl)Gly][N(1S-Me-propyl)Gly][Nspe][Nspe][N(1S-Me-propyl)Gly][Nspe][Nspe]-NH2), the Kd (in general, the concentration at which binding is half-saturated) on RAGE [1] came out at 51.8 ± 7.3 nM. Moreover, in the assay with RAGE [2] (peptoid 50, 10 or 2 μM with 2 ng/mL LPS, normalized to LPS alone), the “upregulation in RAGE expression in the presence of LPS” value is “reduced in a dose-dependent and significant manner”. Also, in the assay on RAGE [2] (peptoid alone (no LPS), relative to the control), the “expression of RAGE, peptoid alone” value was “does not provoke significant response or upregulation”.

The values above are taken from patent publication US11197908B2, “Peptoids and methods for attenuating inflammatory response” (THE BOARD OF TRUSTEES OF THE UNIVERSITY OF ARKANSAS, priority 2018, dated 2021).
